Laboratory results taken from US10913732B2, “Furoxans as therapies for neurodegenerative disorders” (The University of Toledo, priority 2016, dated 2021).
Entries after “also recorded” stand apart in the source; their conditions may differ.

Test system: Male C57BL/6 mice
Assay: Step-through passive avoidance (STPA), scopolamine-induced amnesia
Assay type: in vivo
Experimental: FIGS. 4A-4B: STPA experimental timeline (FIG. 4A), and results of Male C57BL/6 mice administered either vehicle or 31b via i.p. injection at 60 min or 120 min prior to training in STPA (FIG. 4B). […] Memory retention was measured as latency to enter the dark compartment 24 h after training. Data represented as mean and s.e.m.
The STPA apparatus consisted of an acrylic box with an illuminated compartment connected to a darkened compartment by a small guillotine door. Mice were placed in the illuminated side and were trained against their natural tendency to translocate to the dark side using an aversive stimulus (shock via electrified floor grading). Memory consolidation is measured as the latency times to enter the dark compartment 24 hr after training.
All procedures were performed under the approved IACUC protocol #108451. Male C57BL/6 mice (Envigo), N=9 per group, were habituated at the animal facility for at least 14 days. Ear tags were applied and animals weighed. 2 hr prior to the drug adminstration the mice were individually acclimated to the illuminated compartment to assess tendency to enter the dark chamber (measured in seconds). In this phase no shock was be delivered. […] The mice were then administered either vehicle (95 [0.9% NaCl]:5 [DMSO]) or 31b (0.1, 1, 10, or 20 mg/kg) via i.p. injection (50 μL) at 1 h or 2 h prior to training. […] Mice were individually placed into the light compartment and upon translocation to the dark compartment the guiltine door closed and the mice were trained by delivering a mild adversive stimulus (0.5 mA) via the electrified floor grading of the dark chamber. Each mouse was held in the dark chamber for 30 seconds, then returned to their cage for 120 seconds before the second training session. […] Memory retention was measured 24 hours after training by placing the same mouse in the light chamber and measuring latency to enter the dark chamber (no aversive stimulus is delivered during the retention test). Data was analyzed by one way ANOVA analysis with Dunnett's post-hoc test.

CC1CCN(Cc2no[n+]([O-])c2-c2ccc(F)cc2)CC1 [31b]
Latency to enter the dark compartment (20 mg/kg i.p. 2 hr prior to training, scopolamine 1 mg/kg i.p. 30 min prior to training, 24 hr after training): 237 s
Reversal of scopolamine induced amnesia / memory impairment in STPA (mice, i.p., scopolamine 1 mg/kg): reverses scopolamine induced memory impairment; also recorded: capable of reversing scopolamine induced amnesia
